US20250345459A1, “COMPOUND OR SALT THEREOF, LIPID COMPOSITION, PHARMACEUTICAL COMPOSITION, AND DELIVERY CARRIER” (FUJIFILM Corporation, priority 2023, published 2025)

Tests used:
[1] = Particle size of EPO mRNA-encapsulating lipid nanoparticles; type: physicochemical; details: mixed solution PBS
Procedure: (§1) The compounds described in Table 1, the neutral lipid, cholesterol (product name: Cholesterol HP; NIPPON FINE CHEMICAL CO., LTD.), and 1,2-dimyristoyl-rac-glycero-3-(methylpolyoxyethylene 2000) (hereinafter, called DMG-PEG2000) (product name: SUNBRIGHT® GM-020; NOF corporation) were dissolved in ethanol at a molar ratio of ionized lipid:neutral lipid:cholesterol:DMG-PEG2000=50:10:38.5:1.5 mol % such that the total lipid concentration was 12.5 mmol/L, to obtain an oil phase.
(§2) As the neutral lipid, 1,2-distearoyl-sn-glycero-3-phosphocholine (product name: COATSOME® MC-8080; NOF corporation) (hereinafter, DSPC), or L-α-dioleoylphosphatidylethanolamine (hereinafter, DOPE) (product name: COATSOME® MC-8181; NOF corporation) was used.
(§3) EPO mRNA (product name: CleanCap EPO mRNA (5 moU); TriLink) was diluted with 50 mmol/L citrate buffer having a pH 4.0 such that the weight ratio of total lipid concentration to mRNA concentration is about 20:1 to 64:1, thereby obtaining a water phase. Then, the water phase and the oil phase were mixed together using NanoAssemblr (Precision NanoSystems) such that the volume ratio of water phase:oil phase was 3:1. The mixed solution was diluted 2-fold with any of phosphate buffered physiological saline (PBS), water, or a 20 mmol/L Tris buffer solution (pH 7.4) to obtain a dispersion liquid of mRNA lipid nanoparticles. The dispersion liquid was dialyzed with 20 mmol/L Tris buffer solution (pH 7.4) containing 8% sucrose using a dialysis cassette (Slide-A-Lyzer G2, MWCO: 10 kD, Thermo Fisher Scientific) to remove ethanol, thereby obtaining EPO mRNA-encapsulating lipid nanoparticles.
The particle size of the mRNA-encapsulating lipid nanoparticles was measured by 5-fold diluting the dispersion liquid of lipid nanoparticle with phosphate buffered physiological saline (PBS) using a particle size measurement device NanoSaqla (Otsuka Electronics Co., Ltd.).

EPO mRNA = assay: mRNA encapsulation rate of mRNA lipid nanoparticles; type: physicochemical; details: mixed solution PBS
Procedure: as §1, §2, §3
EPO mRNA was diluted with MilliQ water to prepare a diluted sample in 2-fold dilution series from 100 µg/mL to […], and a calibration curve solution was prepared. 50 μL of the calibration curve solution or the mRNA lipid nanoparticles was mixed with 450 μL of methanol to prepare a measurement solution.
The absorbance of each measurement solution at 260 nm and 330 nm was measured using a UV plate reader (Multiskan Go, Thermo Fisher Scientific), the absorbance at 330 nm was subtracted from the absorbance at 260 nm, and the result was defined as the absorbance of each measurement solution. The total […] nucleic acid concentration was calculated from the calibration curve using the absorbance of each sample measurement solution.
The concentration of the outer water phase nucleic acid was quantified by a standard addition method using a QuanT-iT RiboGreen RNA Assay Kit (Thermo Fisher Scientific). First, a 20× TE buffer included in the above kit was diluted with water, thereby obtaining a 1×TE buffer. TE represents Tris/EDTA (ethylenediaminetetraacetic acid). EPO mRNA was diluted with a TE buffer such that the final concentration was 0 to 400 ng/mL to prepare a nucleic acid diluted series. 10 μL of mRNA lipid nanoparticles diluted 5-fold with TE buffer and 90 µL of a nucleic acid dilution series were mixed in a 96-well plate, 100 μL of a Ribogreen reagent diluted 200-fold with TE buffer was added to each well, and then fluorescence (excitation wavelength: 485 nm, fluorescence wavelength: 535 nm) was measured using a fluorescence plate reader (Infinite 200 Pro M nano+, TECAN). From the obtained results, the outer water phase nucleic acid concentration of each measurement solution was calculated according to the standard addition method.
By using the quantification results of the total mRNA concentration and the mRNA concentration in the outer water phase that were obtained through the above steps, the mRNA encapsulation rate of the mRNA lipid nanoparticles was calculated according to the following Equation. […]

ICR mice = assay: EPO protein expression in mice after intravenous EPO mRNA lipid nanoparticles; type: in vivo; details: mRNA 0.1 mg/kg, plasma 6 hours after administration
Procedure: as §1, §2, §3
The dispersion liquid of mRNA lipid nanoparticles prepared in above <Preparation of EPO mRNA-encapsulating lipid nanoparticles> was intravenously administered to ICR mice at a mRNA dosage of 0.1 mg/kg. 6 hours after the administration, blood was collected from the caudal vena cava, thereby obtaining plasma. The human EPO […] was quantified by using the obtained blood plasma and Erythropoietin (EPO) Human Elisa Kit (Abcam.plc). The quantitative value is described as a relative amount of EPO protein in a case where Comparative Example 1 is 1.

[2] = LNP with neutral lipid DSPC, Lipid/Nucleic acid (wt/wt) 20
[3] = neutral lipid DSPC, Lipid/Nucleic acid (wt/wt) 20, Comparative Example 1 is 1
[4] = LNP with neutral lipid DOPE, Lipid/Nucleic acid (wt/wt) 64

CCCCCCC(CCCCCC)COC(=O)CCCCN(CCCC)C(=O)OCCN(CCOC(=O)N(CCCC)CCCCC(=O)OCC(CCCCCC)CCCCCC)CCN(CC)CC [Example 23, Bis(2-hexyloctyl) 6,16-dibutyl-11-(2-(diethylamino)ethyl)-7,15-dioxo-8,14-dioxa-6,11,16-triazahenicosanedioate]
Particle size (nm) [1, 2]: 180 nm
Nucleic acid encapsulation rate (%) (EPO mRNA; [2]): 79%
Relative amount of EPO protein (to Comparative Example 1) (ICR mice; [3]): 1.61

CCCCCCCCN(CCCCC(=O)OCC(CCCCCC)CCCCCC)C(=O)OCCN(CCCCN(CC)CC)CCOC(=O)N(CCCCCCCC)CCCCC(=O)OCC(CCCCCC)CCCCCC [Example 38, bis(2-hexyloctyl) 11-(4-(diethylamino)butyl)-6,16-dioctyl-7,15-dioxo-8,14-dioxa-6,11,16-triazahenicosanedioate]
Particle size (nm) [1, 2]: 137 nm
Nucleic acid encapsulation rate (%) (EPO mRNA; [2]): 93%
Relative amount of EPO protein (to Comparative Example 1) (ICR mice; [3]): 9.99

CCCCCCCCN(CCCCC(=O)OCC(CCCCC)CCCCC)C(=O)OCCN(CCCCN(CC)CC)CCOC(=O)N(CCCCCCCC)CCCCC(=O)OCC(CCCCC)CCCCC [Example 36, Bis(2-pentylheptyl) 11-(4-(diethylamino)butyl)-6,16-dioctyl-7,15-dioxo-8,14-dioxa-6,11,16-triazahenicosanedioate]
Particle size (nm) [1, 2]: 145 nm
Nucleic acid encapsulation rate (%) (EPO mRNA; [2]): 93%
Relative amount of EPO protein (to Comparative Example 1) (ICR mice; [3]): 6.40

CCCCCCCCOC(=O)CCCCN(CCCCCCCC)C(=O)OCCN(CCOC(=O)N(CCCCCCCC)CCCCC(=O)OCC(CCCCCC)CCCCCC)CCN(CC)CC [Example 42, 1-(2-Hexyloctyl) 21-octyl 11-(2-(diethylamino)ethyl)-6,16-dioctyl-7,15-dioxo-8,14-dioxa-6,11,16-triazahenicosanedioate]
Particle size (nm) [1, 2]: 154 nm
Nucleic acid encapsulation rate (%) (EPO mRNA; [2]): 82%
Relative amount of EPO protein (to Comparative Example 1) (ICR mice; [3]): 6.39

CCCCCCCCN(CCCCC(=O)OCC(CCCCC)CCCCC)C(=O)OCCN(CCOC(=O)N(CCCCCCCC)CCCCC(=O)OCC(CCCCC)CCCCC)CCN(CC)CC [Example 3, Bis(2-pentylheptyl) 11-(2-(diethylamino)ethyl)-6,16-dioctyl-7,15-dioxo-8,14-dioxa-6,11,16-triazahenicosanedioate]
Particle size (nm) [1, 4]: 94.5 nm
Particle size (nm) [1, 2]: 78 nm
Nucleic acid encapsulation rate (%) (EPO mRNA; [4]): 99%
Nucleic acid encapsulation rate (%) (EPO mRNA; [2]): 94%
Relative amount of EPO protein (to Comparative Example 1) (ICR mice; neutral lipid DOPE, Lipid/Nucleic acid (wt/wt) 64, Comparative Example 1 is 1): 13.55
Relative amount of EPO protein (to Comparative Example 1) (ICR mice; [3]): 6.15

CCCCCCCCCCCC(=O)OCCN(CCOC(=O)CCCCCCCCCCC)C(=O)OCCN(CCOC(=O)N(CCOC(=O)CCCCCCCCCCC)CCOC(=O)CCCCCCCCCCC)CCN(CC)CC [Example 20, 2-(2-(2-(bis(2-dodecanoyloxyethyl)carbamoyloxy)ethyl-(2-(diethylamino)ethyl)amino)ethoxycarbonyl-(2-dodecanoyloxyethyl)amino)ethyl dodecanoate]
Particle size (nm) [1, 2]: 151 nm
Nucleic acid encapsulation rate (%) (EPO mRNA; [2]): 82%
Relative amount of EPO protein (to Comparative Example 1) (ICR mice; [3]): 1.63

CCCCCCN(CCCCCC(=O)OCC(CCCCC)CCCCC)C(=O)OCCN(CCCN(CC)CC)CCOC(=O)N(CCCCCC)CCCCCC(=O)OCC(CCCCC)CCCCC [Example 26, Bis(2-pentylheptyl) 12-(3-(diethylamino)propyl)-7,17-dihexyl-8,16-dioxo-9,15-dioxa-7,12,17-triazatricosanedioate]
Particle size (nm) [1, 2]: 178 nm
Nucleic acid encapsulation rate (%) (EPO mRNA; [2]): 91%
Relative amount of EPO protein (to Comparative Example 1) (ICR mice; [3]): 4.10

CCCCCCCCN(CCCCC(=O)OCC(CCCCCC)CCCCCC)C(=O)OCCN(CCCN(CC)CC)CCOC(=O)N(CCCCCCCC)CCCCC(=O)OCC(CCCCCC)CCCCCC [Example 37, Bis(2-hexyloctyl) 11-(3-(diethylamino)propyl)-6,16-dioctyl-7,15-dioxo-8,14-dioxa-6,11,16-triazahenicosanedioate]
Particle size (nm) [1, 2]: 136 nm
Nucleic acid encapsulation rate (%) (EPO mRNA; [2]): 93%
Relative amount of EPO protein (to Comparative Example 1) (ICR mice; [3]): 11.39
